Experimental data from US11186534B2, “Derivatives of sulindac can protect normal cells against oxidative damage” (University of South Alabama, priority 2017, dated 2021).

Key:
[1] = test system: Retinal pigmented epithelium cells (ARPE-19); experiment: Cell viability assay: protection of RPE cells against oxidative damage from TBHP; format: cell-based; conditions: for Cyto-protective activity*: RPE cells, TBHP as oxidizing agent, relative to Sulindac; on Cyto-protective activity*: key: active = more active than Sulindac; inactive = less active than Sulindac
Procedure: Cultured cells and reagents: Retinal pigmented epithelium cells (ARPE-19) were obtained from American Type Culture Collection (ATCC, Manassas, Va.) and cultured at 37° C. in 5% CO2. All chemicals were purchased from Sigma unless specified.
Cell viability assay: Cells were cultured and assayed for cell viability essentially as described previously (14). ARPE-19 cells were plated at 10,000 cells per well in a 96-well plate. The cells were grown for 18-20 hours, the medium discarded in aseptic conditions and replaced with fresh culture medium containing the indicated drug concentration. The plates were incubated for 24 hours at 37° C. in a 5% CO2 incubator in the presence of sulindac or Compound 9. To examine the treatment effects on oxidative damage to RPE cells, cells were washed and incubated in media without serum with various concentrations of tert-butyl hydroperoxide (TBHP) for an additional 24h. The culture medium was then discarded and the cells were thoroughly rinsed in PBS. Cell viability was determined by using the Cell Titer 96 Aqueous One Cell Proliferation Assay (Promega) according to the manufacturer's instructions. The assay utilizes a tetrazolium compound that is converted into a water-soluble formazan by the action of cellular NADH oxidase activity in metabolically active cells. The formazan was quantified by measuring the absorbance at 490 nm using a colorimetric microtiter plate reader (SpectraMax Plus; Molecular Devices).
In the present studies, a series of compounds were identified as having the ability to protect RPE cells against oxidative damage using tert-butyl hydroperoxide (TBHP), an organic peroxide, as an oxidizing agent (10).

[2] = test system: rat intact hearts (Langendorff model); experiment: Langendorff model of ischemia/reperfusion injury, LDH release; format: in vivo, Sprague Dawley rats; conditions: 0.7 mg/kg i.p. daily for 48 h; FIG. 9
Procedure: The ex vivo Langendorff procedure is a well-established preparation used to investigate heart physiology, ischemia/reperfusion injury, and other cardiovascular insults (23, 24; also see, e.g., reference 22). Sprague Dawley rats (275-325g) were administered either no drug or Compound 9 daily (at 0.7 mg/kg) for a total of two days (two administrations in total). Forty-eight hours after the start of drug exposure, hearts were removed and exposed to 45 min no flow ischemia and 2 h reperfusion in the Langendorff model (hearts were first equilibrated in KHB buffer for 10 min and then subjected to 45 min ischemia followed by 2 h reperfusion with KHB buffer), in the absence of drug.
In LDH and TTC assays for the Langendorff Preparation, coronary effluent samples (500 μL) from the Langendorff preparation were obtained upon attachment of excised heart, every 15 min before ischemia, immediately after 45 min ischemia, and at 15 min intervals during reperfusion. LDH was measured (using a Cytotox-96 nonradioactive cytotoxicity assay kit (Promega), with the absorbance read at 490 nm). Immediately upon completion, the heart was sliced into 2-mm cross-sectional pieces and slices were incubated for 30 min with 1% 2,3,5-triphenyl tetrazolium chloride (TTC) stain in Krebs-Henseleit buffer (KHB) (pH=7.4) at 37° C. to distinguish between viable (red) and nonviable (white) tissue. Tissue slices were stored overnight in 10% formaldehyde before measurement of infarct size using NIH-Image J software.
The protective (preconditioning) effect of Compound 9 was evaluated in an art-recognized Langendorff model of ischemia/reperfusion injury. Compound 9 was administered via i.p. injection to test animals daily for two days, and animal hearts were then removed for performance of the Langendorff procedure (described above and known in the art).

COX = conditions: background; cited from earlier work
cells [3] = conditions: background; cited from earlier work
cells [4] = conditions: background; cited from earlier work; remark: listed apart in the source

| SMILES | Cyto-protective activity* [1] | further results |
| --- | --- | --- |
| COc1ccc2c(c1)C(CC(=O)O)=C(C)/C2=C/c1cc(OC)c(O)c(OC)c1 [Compound 23, (Z)-2-(1-(4-hydroxy-3,5-dimethoxybenzylidene)-5-methoxy-2-methyl-1H-inden-3-yl)acetic acid] | inactive |  |
| COc1ccc2c(c1)C(CC(=O)O)=C(C)/C2=C/c1ccc(SC(F)(F)F)cc1 [Compound 4, (Z)-2-(5-methoxy-2-methyl-1-(4-((trifluoromethyl)thio)benzylidene)-1H-inden-3-yl)acetic acid] | inactive |  |
| COc1cc(/C=C2/C(C)=C(CC(=O)O)c3cc(C)ccc32)cc(OC)c1OC [Compound 8, (Z)-2-(2,5-dimethyl-1-(3,4,5-trimethoxybenzylidene)-1H-inden-3-yl)acetic acid] | inactive |  |
| CC1=C(CC(=O)O)c2cc(F)ccc2/C1=C\c1ccc([S+](C)[O-])cc1 (centres unmarked) [sulindac] |  | TBHP concentration above which no longer protective for RPE cells ([1]; sulindac at 200 μM, FIG. 2): above 300 μM; Protective effect during the 45 min ischemia phase [2]: no protective effect; Protective effect during the 2 h reperfusion phase [2]: not as robust |
| COc1ccc2c(c1)C(CC(=O)O)=C(C)/C2=C/c1ccc(N(C)C)cc1 [Compound 6, (Z)-2-(1-(4-(dimethylamino)benzylidene)-5-methoxy-2-methyl-1H-inden-3-yl)acetic acid] | inactive |  |
| COc1cc2c(cc1OC)/C(=C\c1ccc(N(C)C)cc1)C(C)=C2CC(=O)NCc1ccco1 [Compound 22, (Z)-2-(1-(4-(dimethylamino)benzylidene)-5,6-dimethoxy-2-methyl-1H-inden-3-yl)-N-(furan-2-ylmethyl)acetamide] | inactive |  |
| COc1cc(/C=C2/C(C)=C(CC(=O)O)c3cc(F)ccc32)cc(OC)c1OC [Compound 12, (Z)-2-(5-fluoro-2-methyl-1-(3,4,5-trimethoxybenzylidene)-1H-inden-3-yl)acetic acid] | inactive |  |
| COc1cc(/C=C2/C(C)=C(CC(=O)O)c3cc(OC)c(OC)cc32)cc(OC)c1 [Compound 17, (Z)-2-(1-(3,5-dimethoxybenzylidene)-5,6-dimethoxy-2-methyl-1H-inden-3-yl)acetic acid] | inactive |  |
| COc1ccc2c(c1)C(CC(=O)O)=C(C)/C2=C/c1cc(Br)c(O)c(OC)c1 [Compound 16, (Z)-2-(1-(3-bromo-4-hydroxy-5-methoxybenzylidene)-5-methoxy-2-methyl-1H-inden-3-yl)acetic acid] | inactive |  |
| COc1ccc2c(c1)C(CC(=O)O)=C(C)/C2=C/c1cc(OC)c(Br)c(OC)c1 [Compound 5, (Z)-2-(1-(4-bromo-3,5-dimethoxybenzylidene)-5-methoxy-2-methyl-1H-inden-3-yl)acetic acid] | inactive |  |
| CC1=C(CC(=O)[O-])c2cc(F)ccc2/C1=C\c1ccc(N(C)C)cc1.[Na+] [Compound 2, sodium (Z)-2-(1-(4-(dimethylamino)benzylidene)-5-fluoro-2-methyl-1H-inden-3-yl)acetate] | inactive |  |
| COc1ccc2c(c1)C(Cc1nc3cnccc3[nH]1)=C(C)/C2=C/c1cc(OC)c(OC)c(OC)c1 [Compound 19, (Z)-2-((5-methoxy-2-methyl-1-(3,4,5-trimethoxybenzylidene)-1H-inden-3-yl)methyl)-1H-imidazo[4,5-c]pyridine] | inactive |  |
| COc1cc2c(cc1OC)/C(=C\c1cc(OC)c(OC)c(OC)c1)C(C)=C2CC(=O)NCc1ccco1 [Compound 20, (Z)-2-(5,6-dimethoxy-2-methyl-1-(3,4,5-trimethoxybenzylidene)-1H-inden-3-yl)-N-(furan-2-ylmethyl)acetamide] | inactive |  |
| COc1cc(/C=C2/C(C)=C(CC(=O)NCc3ccco3)c3cc(OC)c(OC)cc32)cc(OC)c1 [Compound 21, (Z)-2-(1-(3,5-dimethoxybenzylidene)-5,6-dimethoxy-2-methyl-1H-inden-3-yl)-N-(furan-2-ylmethyl)acetamide] | inactive |  |
| COc1ccc2c(c1)C(CC(=O)O)=C(C)/C2=C/c1ccc(OCc2ccccc2)cc1 [Compound 10, (Z)-2-(1-(4-(benzyloxy)benzylidene)-5-methoxy-2-methyl-1H-inden-3-yl)acetic acid] | active | Effectiveness in protecting RPE cells from TBHP compared with sulindac ([1]; compound at 25 μM vs sulindac 200 μM, FIG. 2): equally effective as sulindac; Fold lower effective concentration relative to sulindac (RPE cell protection) ([1]; sulindac 200 μM, Compound 10 at 25 μM, Compound 9 at 10 μM): 8 × |
| COc1cc(/C=C2/C(C)=C(CC(=O)O)c3cc(OC)ccc32)cc(OC)c1 [Compound 7, (Z)-2-(1-(3,5-dimethoxybenzylidene)-5-methoxy-2-methyl-1H-inden-3-yl)acetic acid] | inactive |  |
| CC1=C(CC(=O)O)c2cc(F)ccc2/C1=C\c1ccc(S(C)(=O)=O)cc1 [Sulindac sulfone] |  | COX inhibitory activity (COX): no COX inhibitory activity; Activity in protecting cells against oxidative damage relative to sulindac (cells [3]): more active than sulindac; Toxicity to cells relative to sulindac (cells [4]): significantly more toxic |
| COc1ccc2c(c1)C(CC(=O)O)=C(C)/C2=C/c1ccc(O)c(OC)c1 [Compound 13, (Z)-2-(1-(4-hydroxy-3-methoxybenzylidene)-5-methoxy-2-methyl-1H-inden-3-yl)acetic acid] | inactive |  |
| COc1ccc2c(c1)C(CC(=O)O)=C(C)/C2=C/c1ccc(OC)c(O)c1 [Compound 15, (Z)-2-(1-(3-hydroxy-4-methoxybenzylidene)-5-methoxy-2-methyl-1H-inden-3-yl)acetic acid] | inactive |  |
| COc1cc2c(cc1OC)/C(=C\c1ccc3c(c1)OCO3)C(C)=C2CC(=O)O [Compound 14, (Z)-2-(1-(benzo[d][1,3]dioxol-5-ylmethylene)-5,6-dimethoxy-2-methyl-1H-inden-3-yl)acetic acid] | inactive |  |
| COc1ccc2c(c1)/C(=C\c1cc(OC)c(OC)c(OC)c1)C(C)=C2CC(=O)O [Compound 3, (Z)-2-(6-methoxy-2-methyl-1-(3,4,5-trimethoxybenzylidene)-1H-inden-3-yl)acetic acid] | inactive |  |
| COc1ccc2c(c1)C(CC(=O)O)=C(C)/C2=C/c1cc(OC)c(OC)c(OC)c1 [Compound 11, (Z)-2-(5-methoxy-2-methyl-1-(3,4,5-trimethoxybenzylidene)-1H-inden-3-yl)acetic acid] | inactive |  |
| COc1cc2c(cc1OC)/C(=C\c1cc(OC)c(O)c(OC)c1)C(C)=C2CC(=O)NCc1ccco1 [Compound 18, (Z)-N-(furan-2-ylmethyl)-2-(1-(4-hydroxy-3,5-dimethoxybenzylidene)-5,6-dimethoxy-2-methyl-1H-inden-3-yl)acetamide] | inactive |  |
